Here are results for two molecules from patent US20060019907A1, “Guggulsterone: an inhibitor of nuclear factor - kappaB and IkappaBalpha kinase activation and uses thereof” (Research Development Foundation, priority 2004, published 2006).

In one data set the test system is U937 cells. Description: Cytotoxicity (MTT uptake) of guggulsterone with JNK inhibitor. The data set is classed as cell-based, human. The conditions noted are these: 72 h. The method, then: Cytotoxicity assay. The cytotoxic effects of guggulsterone was determined by the MTT uptake method. Briefly, 5000 cells were incubated with guggulsterone in triplicate in a 96-well plate at 37° C. MTT solution was then added to each well. After a 2-h incubation at 37° C., extraction buffer (20% SDS, 50% dimethylformamide) was added, the cells were incubated overnight at 37° C., and the OD was then measured at 570 nm using a 96-well multiscanner (Dynex Technologies, MRX Revelation, Chantilly, Va.).

Data set [1] has as its target NF-κB p65 subunit (RelA) in nuclear extracts of TNF-treated human H1299 cells (human, UniProt Q04206 1-551). Description: EMSA supershift assay, nuclear extracts of TNF-treated H1299 cells. As to the method:
Nuclear extracts were prepared and tested for NF-κB activation. […] H1299 cells (2×10⁶/ml) were pre-incubated with 50 μM guggulsterone for the indicated times at 37° C. and then treated with 0.1 nM TNF for 30 min at 37° C. Nuclear extracts were prepared and then tested for NF-κB activation. […] Nuclear extracts from H1299 cells (2×10⁶/ml) treated or not treated with 0.1 nM TNF for 30 min were incubated with the antibodies indicated for 30 min at room temperature, and the complex was analyzed by supershift assay. […] Nuclear extracts from H1299 cells (2×10⁶/ml) treated or not treated with 0.1 nM TNF for 30 min were treated with the indicated concentrations of guggulsterone for 4 hours at room temperature and then assayed for DNA binding by EMSA.
NF-κB Activation: To determine NF-κB activation, EMSA was carried out as previously described (Chaturvedi et al., 2000). […] For supershift assays, nuclear extracts prepared from TNF-treated cells were incubated with antibodies against either the p50 or the p65 subunit of NF-κB for 30 min at room temperature before the complex was analyzed by EMSA. The dried gels were visualized, and radioactive bands were quantitated using a PHOSPHORIMAGER™ (Molecular Dynamics, Sunnyvale, Calif.) using IMAGEQUANT™ software.
(In general: In EMSA bound probe runs differently from free probe, usually more slowly.)

Sequence of NF-κB p65 subunit (RelA) in nuclear extracts of TNF-treated human H1299 cells (Q04206 whole entry): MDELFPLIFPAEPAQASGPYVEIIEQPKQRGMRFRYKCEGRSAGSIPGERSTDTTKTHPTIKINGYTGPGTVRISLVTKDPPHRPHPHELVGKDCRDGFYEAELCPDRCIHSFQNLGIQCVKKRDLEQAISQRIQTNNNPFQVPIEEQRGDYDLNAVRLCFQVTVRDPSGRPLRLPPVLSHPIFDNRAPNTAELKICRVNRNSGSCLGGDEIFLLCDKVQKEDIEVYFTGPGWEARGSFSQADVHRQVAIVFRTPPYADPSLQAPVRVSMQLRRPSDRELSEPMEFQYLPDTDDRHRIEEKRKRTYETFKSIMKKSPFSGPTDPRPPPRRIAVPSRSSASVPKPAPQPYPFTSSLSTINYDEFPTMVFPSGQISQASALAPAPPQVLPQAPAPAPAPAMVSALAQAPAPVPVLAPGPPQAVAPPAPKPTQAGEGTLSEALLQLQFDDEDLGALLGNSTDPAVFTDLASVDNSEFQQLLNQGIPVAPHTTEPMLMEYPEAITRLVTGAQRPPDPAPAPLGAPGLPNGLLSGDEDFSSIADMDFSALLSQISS

Take `Oc1c2ccccc2c2c3c(cccc13)N=N2` [SP600125]: the “guggulsterone induced cytotoxicity in combination with JNK inhibitor” value with U937 cells is “blocks guggulsterone induced cytotoxicity”.

B1: NF-κB p50 subunit (NF-κB1) in nuclear extracts of TNF-treated human H1299 cells (other, UniProt P19838 1-433, looked up)
chain: MAEDDPYLGRPEQMFHLDPSLTHTIFNPEVFQPQMALPTDGPYLQILEQPKQRGFRFRYVCEGPSHGGLPGASSEKNKKSYPQVKICNYVGPAKVIVQLVTNGKNIHLHAHSLVGKHCEDGICTVTAGPKDMVVGFANLGILHVTKKKVFETLEARMTEACIRGYNPGLLVHPDLAYLQAEGGGDRQLGDREKELIRQAALQQTKEMDLSVVRLMFTAFLPDSTGSFTRRLEPVVSDAIYDSKAPNASNLKIVRMDRTAGCVTGGEEIYLLCDKVQKDDIQIRFYEEEENGGVWEGFGDFSPTDVHRQFAIVFKTPKYKDINITKPASVFVQLRRKSDLETSEPKPFLYYPEIKDKEEVQRKRQKLMPNFSDSFGGGSGAGAGGGGMFGSGGGGGGTGSTGPGYSFPHYGFPTYGGITFHPGTTKSNAGMKHG
Consider B1, for which, in data set [1], the binding result is given as “binds”.
